Assay: solubility of ezetimibe in water
Format: physicochemical

With `O=C1[C@H](CC[C@H](O)c2ccc(F)cc2)[C@@H](c2ccc(O)cc2)N1c1ccc(F)cc1` [ezetimibe, 1-(4-fluorophenyl)-3(R)-[3-(4-fluorophenyl)-3(S)-hydroxypropyl]-4(S)-(4-hydroxyphenyl)-2-azetidinone] the solubility was < 10 µg/mL.

From patent US20110262497A1, “NOVEL EZETIMIBE FORMULATIONS” (LEK Pharmaceuticals D.D., priority 2008, published 2011)
